Source: patent US7312249B2, “Vitamin D analogues” (Galderma Research & Development, priority 2002, dated 2007)

What was measured:
Type in all cases: cell-based
[1] = tested on: HL60 cells; experiment: Activity on the differentiation of HL60 cells (NBT reduction); conditions: Homo sapiens, HL-60, 96 h, 4 days of culture, NBT-positive cells counted
Description: The biological properties analogous to vitamin D may also be measured by the capacity of the product to induce differentiation of promyelocytic leukaemia cells HL60. The protocol and the results obtained with the compounds according to the invention are described in Example 6 of the present application.
Calcitriol induces the differentiation of promyelocytic leukaemia cells (HL60) into monocytes/macrophages. This differentiation-inducing effect is a well characterized marker for cellular vitamin D. One of the most important anti-microbial products of macrophages is hydrogen peroxide, which may be analyzed experimentally by the reduction of NBT (Nitroblue Tetrazolium).
The method used is the following: the HL60 cells are inoculated into 6-well plates and then treated immediately with a test compound. After 4 days of culture, the cells are incubated with phorbol TPA ester and NBT for a short period and the differentiated cells, that is to say which are positive to NBT are counted.

[2] = molecular target: T1, human VDR receptor (Homo sapiens, UniProt P11473); experiment: VDR agonist activity, co-transfection of HeLa cells with human VDR expression vector and reporter plasmid p240Hase-CAT; conditions: CAT reporter (rat 24-hydroxylase promoter), 18 hours of treatment
T1 construct: expressed in transfected cells; host or cells: HeLa
T1 sequence (P11473 1-427): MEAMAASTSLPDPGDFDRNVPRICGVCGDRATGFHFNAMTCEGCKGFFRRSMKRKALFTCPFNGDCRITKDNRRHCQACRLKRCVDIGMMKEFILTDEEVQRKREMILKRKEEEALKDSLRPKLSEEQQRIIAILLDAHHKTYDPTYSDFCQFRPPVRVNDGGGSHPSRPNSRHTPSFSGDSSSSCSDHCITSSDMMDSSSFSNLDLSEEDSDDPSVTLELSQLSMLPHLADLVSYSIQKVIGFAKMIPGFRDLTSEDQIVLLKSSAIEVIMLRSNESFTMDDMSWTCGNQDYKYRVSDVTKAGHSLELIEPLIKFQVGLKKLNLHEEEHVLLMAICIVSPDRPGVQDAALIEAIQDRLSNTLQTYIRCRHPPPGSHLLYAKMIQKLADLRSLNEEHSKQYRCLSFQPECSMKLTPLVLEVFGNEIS
Description: By way of example, the VDR agonist activity may be tested on the HeLa cell line, by co-transfecting a human VDR receptor expression vector and the reporter plasmid p240Hase-CAT. The agonist activity may also be characterized in this co-transfection system by the determination of the dose necessary to reach 50% of the maximum activity of the product (AC50).
18 hours after co-transfection, the compound to be tested is added to the medium. After 18 hours of treatment, the assay of the CAT activity of the cellular lysates is carried out by an ELISA test (Enzyme Linked Immuno Sorbent Assay, marketed by Roche Molecular Biochemicals). The agonist activity may be characterized in this co-transfection system by determining the dose required to reach 50% of the maximum activity of the compound tested (AC50).

[3] = tested on: normal human keratinocytes; experiment: Activity on the proliferation of human keratinocytes (BrdU incorporation); conditions: Keratinocyte, 120 h, 5 days of culture, read-out: IC50 - proliferation of the KHNs
Description: The biological properties which are similar to vitamin D may also be measured by the capacity of the product to inhibit the proliferation of normal human keratinocytes (NHK in culture). The product is added to NHKs cultured under conditions promoting the proliferative state. The product is left in contact with the cells for 5 days. The number of proliferative cells is measured by incorporation of bromodeoxyuridine (BRdU) into DNA. The protocol for this test and the results obtained with the compounds according to the invention are described in Example 8 of the present application.
The method used is the following: normal human keratinocytes are inoculated at low density into a 24-well plate. After 4 hours, the compounds to be tested are added to the culture medium. After 5 days of culture, the proliferation of the kerátinocytes is determined by incorporating 5-bromo-2′-deoxyuridine (BrdU) into the DNA. The quantity of BrdU incorporated is then measured using the ELISA test (Enzyme Linked Immuno Sorbent Assay, marketed by Roche Molecular Biochemicals).

Row | SMILES | AC50 [1] [nM] | AC50 [2] [nM] | IC50 [3] [nM]
1 | C=C1/C(=C\C=C2/CCC[C@]3(C)[C@@H]([C@H](C)CCCC(C)(C)O)CC[C@@H]23)C[C@@H](O)C[C@@H]1O [Calcitriol, 1,25-dihydroxyvitamin D3, reference compound] | 10.7 |  | 
2 | CCc1cc(CCCc2ccc(CO)c(CO)c2)ccc1OCC(O)(CC)CC [Compound of Example 3, (4-{3-(3-Ethyl-4-(2-ethyl-2-hydroxy-butoxy)-phenyl]-propyl}-2-hydroxymethyl-phenyl)-methanol] |  | 1210 | 
3 | CCc1cc(CCCc2ccc(CO)c(CO)c2)ccc1OCC(O)C(C)(C)C (stereo not drawn) [Compound of Example 1, 1-{4-[3-(3,4-Bis-hydroxymethyl-phenyl)-propyl]-2-ethyl-phenoxy}-3,3-dimethyl-butan-2-ol] | 312 | 40 | 150
4 | CCC(O)(CC)COc1ccc(CCCc2ccc(CO)c(CO)c2)cc1C [Compound of Example 4, (4-{3-(4-(2-Ethyl-2-hydroxy-butoxy)-3-methyl-phenyl]-propyl)-2-hydroxymethyl-phenyl)-methanol] |  | > 3000 | 
5 | Cc1cc(CCCc2ccc(CO)c(CO)c2)ccc1OCC(O)C(C)(C)C (stereo not drawn) [Compound of Example 2, 1-{4-[3-(3,4-Bis-hydroxymethyl-phenyl)-propyl]-2-methyl-phenoxy}-3,3-dimethyl-butan-2-ol] | 2500 | 172 | 140
